Experimental data as given in US9718790B2, “Triazine derivative and pharmaceutical composition having an analgesic activity comprising the same” (SHIONOGI & CO., LTD., priority 2010, dated 2017).

Biological target: human P2X3 receptor (Homo sapiens (Human), UniProt P56373)
Test: Evaluation of human P2X3 receptor inhibitory activity (Fluo-3 calcium fluorescence, FDSS 3000, ATP stimulation);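 further: stimulus was 50 nM ATP with fluorescence followed for 3 min, and the response per well was peak post-ATP fluorescence divided by the reading at measurement start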
Format: cell-based
Conditions: C6BU-1 cells stably expressing human P2X3 receptor

Sequence of human P2X3 receptor (P56373 whole entry): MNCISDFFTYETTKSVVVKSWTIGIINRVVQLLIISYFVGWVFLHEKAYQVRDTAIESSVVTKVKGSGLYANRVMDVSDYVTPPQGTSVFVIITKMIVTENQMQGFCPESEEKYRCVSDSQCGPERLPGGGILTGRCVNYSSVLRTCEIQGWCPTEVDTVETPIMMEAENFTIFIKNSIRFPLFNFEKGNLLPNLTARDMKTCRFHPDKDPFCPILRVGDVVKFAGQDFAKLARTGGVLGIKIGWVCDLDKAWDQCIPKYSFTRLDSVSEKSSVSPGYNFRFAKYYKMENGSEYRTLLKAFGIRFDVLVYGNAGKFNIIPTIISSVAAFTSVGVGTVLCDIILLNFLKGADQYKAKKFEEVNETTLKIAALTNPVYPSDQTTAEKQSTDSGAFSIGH

In the case of `COC(=O)[C@@H](C)Cn1c(=O)[nH]/c(=N\c2ccc(COC(C)C)cc2)n(Cc2ccc(Cl)cc2)c1=O` [Compound I-0656], the IC50 is reported as 100 nM.
In the case of `COC(=O)[C@@H](C)Cn1c(=O)[nH]/c(=N\c2ccc(CCO)cc2)n(Cc2ccc(Cl)cc2)c1=O` [Compound I-0657], the IC50 is reported as 471 nM.
For `C[C@@H](Cn1c(=O)[nH]/c(=N\c2ccc(OC(F)F)c(F)c2)n(Cc2ccc(Cl)cc2)c1=O)C(=O)O` [Compound I-0658], the IC50 was 109 nM.
With `CC(C)Oc1ccc(/N=c2\[nH]c(=O)n(CCNC(=N)N)c(=O)n2Cc2ccc(Cl)cc2)cc1F` [Compound I-0659, 1-(4-chlorobenzyl)-6-(3-fluoro-4-isopropoxyphenylimino)-3-(4-imino-4-amino-3-azabutyl)-1,3,5-triazinane-2,4-dion] the IC50 was 134 nM.
Work on `COC(=O)Cn1c(=O)[nH]/c(=N\c2ccc(OC(C)C)c(Cl)c2)n(Cc2ccc(Cl)cc2)c1=O` [Compound I-0660] yielded an IC50 of 11 nM.
In the case of `CC(C)Oc1ccc(/N=c2\[nH]c(=O)n(C[C@H]3CC(=O)N([C@@H](C)c4ccccc4)C3)c(=O)n2Cc2ccc(Cl)cc2)cc1F` [Compound I-0661], the IC50 is reported as 7 nM.
`CC(C)Oc1ccc(/N=c2\[nH]c(=O)n(C[C@@H]3CC(=O)N([C@H](C)c4ccccc4)C3)c(=O)n2Cc2ccc(Cl)cc2)cc1F` [Compound I-0662] showed an IC50 of 22 nM.
`CC(C)Oc1ccc(/N=c2\[nH]c(=O)n(CC(=O)NC3CCOCC3)c(=O)n2Cc2ccc(Cl)cc2)cc1Cl` [Compound I-0663] showed an IC50 of 5 nM.
In the case of `CC(C)Oc1ccc(/N=c2\[nH]c(=O)n(CC(=O)NCC3CCOCC3)c(=O)n2Cc2ccc(Cl)cc2)cc1Cl` [Compound I-0664], the IC50 is reported as 6 nM.
`CC(C)Oc1ccc(/N=c2\[nH]c(=O)n(CC(=O)NC(CO)CO)c(=O)n2Cc2ccc(Cl)cc2)cc1Cl` [Compound I-0665] showed an IC50 of 4 nM.
With `CC(C)Oc1ccc(/N=c2\[nH]c(=O)n(CC(=O)NCCC3CCOCC3)c(=O)n2Cc2ccc(Cl)cc2)cc1Cl` [Compound I-0666] the IC50 was 8 nM.
`CC(C)Oc1ccc(/N=c2\[nH]c(=O)n(CC(=O)OCC3CCOCC3)c(=O)n2Cc2ccc(Cl)cc2)cc1Cl` [Compound I-0667] gave an IC50 of 20 nM.
In the case of `CC(C)OCc1ccc(/N=c2\[nH]c(=O)n(C[C@H](C)C(=O)O)c(=O)n2Cc2ccc(Cl)cc2)cc1` [Compound I-0669], the IC50 is reported as 193 nM.
With `COC(=O)[C@@H](C)Cn1c(=O)[nH]/c(=N\c2ccc(OC(C)C)c(C)c2)n(Cc2ccc(C)cc2)c1=O` [Compound I-0670] the IC50 was 8 nM.
Molecule `COC(=O)[C@@H](C)Cn1c(=O)[nH]/c(=N\c2ccc3oc(C)cc3c2)n(Cc2ccc(C)cc2)c1=O` [Compound I-0671] has an IC50 of 15 nM.
`CC(C)Oc1ccc(/N=c2\[nH]c(=O)n(CCc3ncn[nH]3)c(=O)n2Cc2ccc(Cl)cc2)cc1F` [Compound I-0672, 1-(4-chlorobenzyl)-6-(3-fluoro-4-isopropoxyphenylimino)-3-[2-(1,2,4-triazol-5-yl)ethyl]-1,3,5-triazinane-2,4-dion] was tested, and the IC50 was 8 nM.
`CC(C)Oc1ccc(/N=c2\[nH]c(=O)n(CC(=O)OC3CCOCC3)c(=O)n2Cc2ccc(Cl)cc2)cc1Cl` [Compound I-0673] was tested, and the IC50 was 8 nM.
With `CC(C)Oc1ccc(/N=c2\[nH]c(=O)n(C3C[C@H]3C(=O)O)c(=O)n2Cc2ccc(Cl)cc2)cc1F` (some centres unmarked) [Compound I-0674] the IC50 was 126 nM.
`CC(C)Oc1ccc(/N=c2\[nH]c(=O)n([C@H]3C[C@@H]3C(=O)O)c(=O)n2Cc2ccc(Cl)cc2)cc1F` [Compound I-0675] gave an IC50 of 37 nM.
For `COC(=O)C(C)(C)n1c(=O)[nH]/c(=N\c2ccc(O)c(Cl)c2)n(Cc2ccc(Cl)cc2)c1=O` [Compound I-0676], the IC50 was 30 nM.
With `CCOc1ccc(/N=c2\[nH]c(=O)n(C[C@H](C)C(=O)OC)c(=O)n2Cc2ccc(C)cc2)cc1Cl` [Compound I-0678] the IC50 was 8 nM.
`CC(C)Oc1ccc(/N=c2\[nH]c(=O)n(Cc3ncn[nH]3)c(=O)n2Cc2ccc(Cl)cc2)cc1F` [Compound I-0679] showed an IC50 of 32 nM.
For `Cc1ccc(Cn2c(=O)n(C[C@H](C)C(=O)O)c(=O)[nH]/c2=N\c2ccc(OC(C)C)c(C)c2)cc1` [Compound I-0680], the IC50 was 26 nM.
With `Cc1ccc(Cn2c(=O)n(C[C@H](C)C(=O)O)c(=O)[nH]/c2=N\c2ccc3oc(C)cc3c2)cc1` [Compound I-0681] the IC50 was 49 nM.
`CCOc1ccc(/N=c2\[nH]c(=O)n(C[C@H](C)C(=O)O)c(=O)n2Cc2ccc(C)cc2)cc1Cl` [Compound I-0682] was tested, and the IC50 was 23 nM.
`COc1ncccc1Cn1c(=O)[nH]/c(=N\c2ccc(OC(C)C)c(F)c2)n(Cc2ccc(Cl)cc2)c1=O` [Compound I-0683] showed an IC50 of 9 nM.
For `COc1ccc(CN2C(=O)CC[C@H]2Cn2c(=O)[nH]/c(=N\c3ccc(OC(C)C)c(F)c3)n(Cc3ccc(Cl)cc3)c2=O)cc1` [Compound I-0684], the IC50 was 30 nM.
With `CC(C)Oc1ccc(/N=c2\[nH]c(=O)n(Cc3ccc[nH]c3=O)c(=O)n2Cc2ccc(Cl)cc2)cc1F` [Compound I-0685] the IC50 was 8 nM.
Molecule `COCc1ccc(/N=c2\[nH]c(=O)n(C[C@H](C)C(=O)O)c(=O)n2Cc2ccc(Cl)cc2)cc1` [Compound I-0686] has an IC50 of 605 nM.
For `CC(C)Oc1ccc(/N=c2\[nH]c(=O)n(C(C)(C)C(=O)NC(CO)CO)c(=O)n2Cc2ccc(Cl)cc2)cc1Cl` [Compound I-0687], the IC50 was 12 nM.
`COc1ccc(CN2C(=O)CC[C@@H]2Cn2c(=O)[nH]/c(=N\c3ccc(OC(C)C)c(F)c3)n(Cc3ccc(Cl)cc3)c2=O)cc1` [Compound I-0688] was tested, and the IC50 was 5 nM.
In the case of `CC(C)Oc1ccc(/N=c2\[nH]c(=O)n(Cc3cccn(C)c3=O)c(=O)n2Cc2ccc(Cl)cc2)cc1F` [Compound I-0689], the IC50 is reported as 5 nM.
`COC(=O)[C@@H](C)Cn1c(=O)[nH]/c(=N\c2ccc(C)c(Cl)c2)n(Cc2ccc(Cl)cc2)c1=O` [Compound I-0691] was tested, and the IC50 was 48 nM.
`COC(=O)[C@@H](C)Cn1c(=O)[nH]/c(=N\c2ccc3[nH]c(C)cc3c2)n(Cc2ccc(Cl)cc2)c1=O` [Compound I-0692] gave an IC50 of 29 nM.
With `CC(C)Oc1ccc(/N=c2\[nH]c(=O)n(CCS(N)(=O)=O)c(=O)n2Cc2ccc(Cl)cc2)cc1F` [Compound I-0693, 1-(4-chlorobenzyl)-6-(3-fluoro-4-isopropoxyphenylimino)-3-(2-sulfamoylethyl)-1,3,5-triazinane-2,4-dion] the IC50 was 13 nM.
In the case of `CCOC(=O)C1(Cn2c(=O)[nH]/c(=N\c3ccc(OC(C)C)c(C)c3)n(Cc3ccc(Cl)cc3)c2=O)CC1` [Compound I-0694], the IC50 is reported as 13 nM.
`Cc1ccc(/N=c2\[nH]c(=O)n(C[C@H](C)C(=O)O)c(=O)n2Cc2ccc(Cl)cc2)cc1Cl` [Compound I-0696] showed an IC50 of 129 nM.
For `Cc1cc2cc(/N=c3\[nH]c(=O)n(C[C@H](C)C(=O)O)c(=O)n3Cc3ccc(Cl)cc3)ccc2[nH]1` [Compound I-0697], the IC50 was 57 nM.
`Cc1cc(/N=c2\[nH]c(=O)n(CC3(C(=O)O)CC3)c(=O)n2Cc2ccc(Cl)cc2)ccc1OC(C)C` [Compound I-0698] was tested, and the IC50 was 26 nM.
For `COC(=O)[C@@H]1CC(n2c(=O)[nH]/c(=N\c3ccc(OC(C)C)c(C)c3)n(Cc3ccc(Cl)cc3)c2=O)CN1C(=O)OC(C)(C)C` (some centres unmarked) [Compound I-0699], the IC50 was 37 nM.
For `COC(=O)c1ccc(Cn2c(=O)[nH]/c(=N\c3ccc(OC(C)C)c(C)c3)n(Cc3ccc(Cl)cc3)c2=O)o1` [Compound I-0700], the IC50 was 6 nM.
Molecule `CCC(Cn1c(=O)[nH]/c(=N\c2ccc(OC(C)C)c(C)c2)n(Cc2ccc(Cl)cc2)c1=O)C(=O)OC(C)(C)C` (centres unmarked) [Compound I-0701] has an IC50 of 35 nM.
Work on `COC(=O)[C@@H](C)Cn1c(=O)[nH]/c(=N\c2ccc(OC)c(Cl)c2)n(Cc2ccc(Cl)cc2)c1=O` [Compound I-0702] yielded an IC50 of 107 nM.
`CNC(=O)C1(Cn2c(=O)[nH]/c(=N\c3ccc(OC(C)C)c(C)c3)n(Cc3ccc(Cl)cc3)c2=O)CC1` [Compound I-0703] gave an IC50 of 15 nM.
`Cc1cc(/N=c2\[nH]c(=O)n(CC3(C(=O)NCCO)CC3)c(=O)n2Cc2ccc(Cl)cc2)ccc1OC(C)C` [Compound I-0704] showed an IC50 of 23 nM.
Work on `CC(C)Oc1ccc(/N=c2\[nH]c(=O)n(C(C)(C)C(=O)NCCO)c(=O)n2Cc2ccc(Cl)cc2)cc1Cl` [Compound I-0705] yielded an IC50 of 11 nM.
Molecule `CCCOc1ccc(/N=c2\[nH]c(=O)n(C[C@H](C)C(=O)OC)c(=O)n2Cc2ccc(Cl)cc2)cc1C` [Compound I-0707] has an IC50 of 21 nM.
`Cc1cc(/N=c2\[nH]c(=O)n([C@H]3C[C@@H](C(=O)O)N(C(=O)OC(C)(C)C)C3)c(=O)n2Cc2ccc(Cl)cc2)ccc1OC(C)C` [Compound I-0708] showed an IC50 of 966 nM.
For `Cc1cc(/N=c2\[nH]c(=O)n(C[C@H]3COC(C)(C)O3)c(=O)n2Cc2ccc(Cl)cc2)ccc1OC(C)C` [Compound I-0709], the IC50 was 7 nM.
For `Cc1cc(/N=c2\[nH]c(=O)n(Cc3ccc(C(=O)O)o3)c(=O)n2Cc2ccc(Cl)cc2)ccc1OC(C)C` [Compound I-0710], the IC50 was 19 nM.
For `CCCOc1ccc(/N=c2\[nH]c(=O)n(C[C@H](C)C(=O)O)c(=O)n2Cc2ccc(Cl)cc2)cc1C` [Compound I-0711], the IC50 was 40 nM.
Work on `Cc1cc(/N=c2\[nH]c(=O)n(Cc3cccn(CCOC4CCCCO4)c3=O)c(=O)n2Cc2ccc(Cl)cc2)ccc1OC(C)C` (centres unmarked) [Compound I-0712] yielded an IC50 of 25 nM.
Work on `Cc1cc(/N=c2\[nH]c(=O)n(Cc3cccn(CCO)c3=O)c(=O)n2Cc2ccc(Cl)cc2)ccc1OC(C)C` [Compound I-0713] yielded an IC50 of 16 nM.
`Cc1cc(/N=c2\[nH]c(=O)n(Cc3cccnc3OCCOC3CCCCO3)c(=O)n2Cc2ccc(Cl)cc2)ccc1OC(C)C` (centres unmarked) [Compound I-0714] showed an IC50 of 30 nM.
With `Cc1cc(/N=c2\[nH]c(=O)n(Cc3cccnc3OCCO)c(=O)n2Cc2ccc(Cl)cc2)ccc1OC(C)C` [Compound I-0715] the IC50 was 13 nM.
Molecule `Cc1cc(/N=c2\[nH]c(=O)n([C@@H]3CN[C@H](C(=O)O)C3)c(=O)n2Cc2ccc(Cl)cc2)ccc1OC(C)C` [Compound I-0716] has an IC50 of 102 nM.
Molecule `CCOC(=O)[C@H](CCn1c(=O)[nH]/c(=N\c2ccc(OC(C)C)c(C)c2)n(Cc2ccc(Cl)cc2)c1=O)NC(=O)OC(C)(C)C` [Compound I-0717, (S)-1-(4-chlorobenzyl)-3-(3-t-butoxycarbonylamino-3-ethoxycarbonyl-propyl)-6-(3-mehyl-4-isopropoxyphenylimino)-1,3,5-triazinane-2,4-dion] has an IC50 of 21 nM.
`CCOC(=O)C1CCC(n2c(=O)[nH]/c(=N\c3ccc(OC(C)C)c(C)c3)n(Cc3ccc(Cl)cc3)c2=O)CC1` (centres unmarked) [Compound I-0718] was tested, and the IC50 was 93 nM.
`COC(=O)[C@@H](C)Cn1c(=O)[nH]/c(=N\c2ccc(OCCO)cc2)n(Cc2ccc(Cl)cc2)c1=O` [Compound I-0719] was tested, and the IC50 was 115 nM.
